# Measurements published in PMC8161026, “Synthesis and Anticancer Activity Evaluation of 5-[2-Chloro-3-(4-nitrophenyl)-2-propenylidene]-4-thiazolidinones” (Molecules, 2021).
# Read-outs that look alike come from different tables or passages of the source.
# Legend:
# Breast Cancer subpanel = experiment: cells
# Procedure: (§1) At the first stage of biological activity study, the antitumor activity screening of the selected compounds 2b, 2c, 2f, 2h, and 2j was performed according to the NCI DTP (USA) standard protocol at the concentrations ranging from 10^−4 to 10^−8 M toward 60 tumor cell lines. The percentage of growth was evaluated spectrophotometrically versus controls not treated with test agents after 48 h exposure and using SRB protein assay to estimate cell viability or growth. Dose–response parameters were calculated for each cell line: GI50—molar concentration of the compound that inhibits 50% net cell growth; TGI—molar concentration of the compound leading to the total inhibition; and LC50—molar concentration of the compound leading to 50% net cell death. Furthermore, mean graph midpoints (MG_MID) were calculated for each of the parameters, giving an average activity parameter over all cell lines for the tested compound. For the MG_MID calculation, insensitive cell lines were included with the highest concentration tested.
# (§2) The selectivity index (SI) obtained by dividing the full panel MG-MID (mM) of the tested compound by their individual subpanel MG-MID (mM) was considered as a measure of selectivity of anticancer activity (Table 3).
# (§3) Primary anticancer assay was performed on a panel of approximately sixty human tumor cell lines derived from nine neoplastic diseases, in accordance with the protocol of the Drug Evaluation Branch, National Cancer Institute, Bethesda. Tested compounds were added to the culture at a single concentration (10^−5 M) and the cultures were incubated for 48 h. End point determinations were made with a protein binding dye, sulforhodamine B (SRB). […] The percentage growth was evaluated spectrophotometrically versus controls not treated with test agents.
# (§4) Dose–response parameters (GI50, TGI, LC50) were calculated for each compound. […] The drug concentration resulting in total growth inhibition (TGI) was calculated from Ti = Tz. The LC50 (concentration of drug resulting in a 50% reduction in the measured protein at the end of the drug treatment as compared to that at the beginning) indicating a net loss of cells following treatment was calculated from [(Ti − Tz)/Tz] × 100 = −50 (2). Values were calculated for each of these parameters if the level of activity was reached; however, if the effect was not reached or was excessive, the value for that parameter was expressed as more or less than the maximum or minimum concentration tested.
# CNS Cancer subpanel = experiment: cells
# Procedure: as §1, §2, §3, §4
# Colon Cancer subpanel = experiment: cells
# Procedure: as §1, §2, §3, §4
# Leukemia subpanel = experiment: cells
# Procedure: as §1, §2, §3, §4
# Melanoma subpanel = experiment: cells
# Procedure: as §1, §2, §3, §4
# [1] = tested on: Non-Small Cell Lung Cancer subpanel; experiment: cells
# Procedure: as §1, §2, §3, §4
# Ovarian Cancer subpanel = experiment: cells
# Procedure: as §1, §2, §3, §4
# Prostate Cancer subpanel = experiment: cells
# Procedure: as §1, §2, §3, §4
# Renal Cancer subpanel = experiment: cells
# Procedure: as §1, §2, §3, §4
# 60 tumor cell lines = experiment: NCI60 full panel MG_MID
# Procedure: as §1, §3, §4
# A549/ATCC = A549/ATCC (Non-Small Cell Lung Cancer), 48 h, SRB
# NCI-H23 = NCI-H23 (Non-Small Cell Lung Cancer), 48 h, SRB
# HCT-116 = HCT-116 (Colon Cancer), 48 h, SRB
# 786-0 = 786-0 (Renal Cancer), 48 h, SRB
# LOX IMVI = experiment: cells; details: Homo sapiens, 48 h
# NCI-322M = experiment: NCI DTP 60 cell line screen, SRB; details: 48 h
# HCT-15 = experiment: NCI DTP 60 cell line screen, SRB
# M14 = experiment: NCI DTP 60 cell line screen, SRB
# SK-OV-3 = experiment: NCI DTP 60 cell line screen, SRB
# [2] = Homo sapiens, read-out: MG_MID, GI50
# [3] = Homo sapiens, read-out: MG_MID, LC50
compound,measurement,setting,value
"O=C(O)CCN1C(=O)/C(=C/C(Cl)=C/c2ccc([N+](=O)[O-])cc2)SC1=S [Compound 2h, 3-{5-[(Z,2Z)-2-Chloro-3-(4-nitrophenyl)-2-propenylidene]-4-oxo-2-thioxothiazolidin-3-yl}propanoic acid]","SI (selectivity index), GI50",Breast Cancer subpanel,2.63
same,"SI (selectivity index), TGI",Breast Cancer subpanel,0.63
same,"MG_MID, TGI",Breast Cancer subpanel; Breast Cancer panel mean,21.1 µM
same,GI50,Breast Cancer subpanel; [2],0.598 µM
same,CC50,Breast Cancer subpanel; [3],49.6 µM
same,"SI (selectivity index), LC50",Breast Cancer subpanel; full panel MG_MID / Breast Cancer subpanel MG_MID,1.31
same,"SI (selectivity index), GI50",CNS Cancer subpanel,0.50
same,"SI (selectivity index), TGI",CNS Cancer subpanel,0.75
same,"MG_MID, TGI",CNS Cancer subpanel; CNS Cancer panel mean,17.7 µM
same,GI50,CNS Cancer subpanel; [2],3.13 µM
same,CC50,CNS Cancer subpanel; [3],84.9 µM
same,"SI (selectivity index), LC50",CNS Cancer subpanel; full panel MG_MID / CNS Cancer subpanel MG_MID,0.77
same,"SI (selectivity index), GI50",Colon Cancer subpanel,3.43
same,"SI (selectivity index), TGI",Colon Cancer subpanel,0.57
same,"MG_MID, TGI",Colon Cancer subpanel; Colon Cancer panel mean,23.3 µM
same,GI50,Colon Cancer subpanel; [2],0.458 µM
same,CC50,Colon Cancer subpanel; [3],> 100 µM
same,"SI (selectivity index), LC50",Colon Cancer subpanel; full panel MG_MID / Colon Cancer subpanel MG_MID,<0.65
same,"SI (selectivity index), GI50",Leukemia subpanel,10.83
same,"SI (selectivity index), TGI",Leukemia subpanel,2.45
same,TI (Therapeutic Index),Leukemia subpanel; GI50 (normal blood lymphocyte)/GI50 (Leukemia Panel),376.14
same,GI50,Leukemia subpanel; [2],0.145 µM
same,CC50,Leukemia subpanel; [3],> 100 µM
same,"MG_MID, TGI",Leukemia subpanel; Leukemia panel mean,5.42 µM
same,"SI (selectivity index), LC50",Leukemia subpanel; full panel MG_MID / Leukemia subpanel MG_MID,<0.65
same,"SI (selectivity index), GI50",Melanoma subpanel,0.64
same,"SI (selectivity index), TGI",Melanoma subpanel,0.96
same,GI50,Melanoma subpanel; [2],2.45 µM
same,CC50,Melanoma subpanel; [3],53.1 µM
same,"MG_MID, TGI",Melanoma subpanel; Melanoma panel mean,13.9 µM
same,"SI (selectivity index), LC50",Melanoma subpanel; full panel MG_MID / Melanoma subpanel MG_MID,1.22
same,"SI (selectivity index), GI50",[1],0.59
same,"SI (selectivity index), TGI",[1],1.38
same,GI50,[1]; [2],2.65 µM
same,CC50,[1]; [3],61.4 µM
same,"MG_MID, TGI",[1]; Non-Small Cell Lung Cancer panel mean,9.61 µM
same,"SI (selectivity index), LC50",[1]; full panel MG_MID / Non-Small Cell Lung Cancer subpanel MG_MID,1.06
same,"SI (selectivity index), GI50",Ovarian Cancer subpanel,0.74
same,"SI (selectivity index), TGI",Ovarian Cancer subpanel,1.05
same,GI50,Ovarian Cancer subpanel; [2],2.13 µM
same,CC50,Ovarian Cancer subpanel; [3],68.7 µM
same,"MG_MID, TGI",Ovarian Cancer subpanel; Ovarian Cancer panel mean,12.7 µM
same,"SI (selectivity index), LC50",Ovarian Cancer subpanel; full panel MG_MID / Ovarian Cancer subpanel MG_MID,0.95
same,"SI (selectivity index), GI50",Prostate Cancer subpanel,2.77
same,"SI (selectivity index), TGI",Prostate Cancer subpanel,1.55
same,GI50,Prostate Cancer subpanel; [2],0.567 µM
same,CC50,Prostate Cancer subpanel; [3],47.1 µM
same,"MG_MID, TGI",Prostate Cancer subpanel; Prostate Cancer panel mean,8.59 µM
same,"SI (selectivity index), LC50",Prostate Cancer subpanel; full panel MG_MID / Prostate Cancer subpanel MG_MID,1.38
same,"SI (selectivity index), TGI",Renal Cancer subpanel,2.77
same,GI50,Renal Cancer subpanel; [2],0.99 µM
same,CC50,Renal Cancer subpanel; [3],23.8 µM
same,"MG_MID, TGI",Renal Cancer subpanel; Renal Cancer panel mean,4.81 µM
same,"SI (selectivity index), LC50",Renal Cancer subpanel; full panel MG_MID / Renal Cancer subpanel MG_MID,2.73
same,GI50,"60 tumor cell lines; Homo sapiens, read-out: 60 lines MG_MID, GI50",1.57 µM
same,CC50,"60 tumor cell lines; Homo sapiens, read-out: 60 lines MG_MID, LC50",65 µM
same,GI50,"60 tumor cell lines; Homo sapiens, read-out: GI50 concentration range",0.01 to 0.02 µM
same,"60 lines MG_MID, TGI",60 tumor cell lines; mean over all cell lines,13.3 µM
same,TI (Therapeutic Index),K-562; GI50 (normal blood lymphocyte)/GI50 (K-562),257.26
same,TGI,"K-562; K-562 (Leukemia), 48 h, SRB",2.83 µM
same,TGI,A549/ATCC,7.62 µM
same,TGI,NCI-H23,3.22 µM
same,TGI,HCT-116,1.19 µM
same,TGI,786-0,2.47 µM
same,GI50,LOX IMVI,0.161 µM
same,CC50,LOX IMVI; read-out: LC50,> 100 µM
same,GI50,"NCI-322M; Homo sapiens, NCI-322M",2.83 µM
same,CC50,"NCI-322M; Homo sapiens, NCI-322M, read-out: LC50",63.4 µM
same,TGI,"NCI-322M; NCI-322M (Non-Small Cell Lung Cancer), SRB",10.9 µM
same,TGI,"HCT-15; HCT-15 (Colon Cancer), 48 h, SRB",2.96 µM
same,GI50,"HCT-15; Homo sapiens, HCT-15, 48 h",0.23 µM
same,CC50,"HCT-15; Homo sapiens, HCT-15, 48 h, read-out: LC50",> 100 µM
same,GI50,"M14; Homo sapiens, M14, 48 h",1.66 µM
same,CC50,"M14; Homo sapiens, M14, 48 h, read-out: LC50",7.74 µM
same,TGI,"M14; M14 (Melanoma), 48 h, SRB",3.58 µM
same,GI50,"SK-OV-3; Homo sapiens, SK-OV-3, 48 h",6.83 µM
same,CC50,"SK-OV-3; Homo sapiens, SK-OV-3, 48 h, read-out: LC50",77.6 µM
same,TGI,"SK-OV-3; SK-OV-3 (Ovarian Cancer), 48 h, SRB",27.4 µM
